# Reference: patent US20080081039A1, “Inorganic Selenium For Treatment Of Cancer” (priority 2004, published 2008)
# Like-named read-outs stand apart in the source and are kept apart here.
# Key:
# [1] = test system: androgen sensitive LNCaP cells; settings: for androgen sensitive NS LNCaP cell proliferation: 5 μM, 9 days
# Protocol: Cells were harvested at 72 hours following addition of the compounds and cell counts of viable cells as assessed by Trypan Blue staining were determined.
# Cells were harvested at the indicated periods following addition of the compounds and cell counts of viable cells as assessed by Trypan Blue staining were determined.
# (§1) The parental androgen-sensitive LNCaP cell line was obtained from the American Type Culture Collection (Manassas, Va., USA) and routinely cultured in […] (Invitrogen) supplemented with 10% foetal calf serum and 1% antibiotic/antimycotic mixture (Invitrogen). Cells were maintained at 37° C. in 5% CO2. To select androgen independent LNCaP cells LNCaPs were cultured in […] (Invitrogen) in 5% Charcoal stripped serum (CSS) (Invitrogen) which has removed all detectable traces of testosterone, for 6-8 weeks and obtained LNCaP cell lines which were now able to freely proliferate in the absence of testosterone. These cells are referred to as CSS LNCaPs.
# (§2) Between 5×10^4 (FIGS. 1-2) and 1×10^5 LNCaP, CSS LNCaP or Q293 cells were allowed to attach overnight. […] Supernatants and cells were then harvested, combined and viable cells assessed by Trypan Blue exclusion assay. Experiments were performed in triplicate.
# [2] = test system: androgen independent CSS LNCaP cells
# Protocol: 5×10^4 human prostate cancer androgen independent CSS LNCaP cells were seeded in a 6-well dish and 8 hours later were treated with either 50 μM selenate or not (control).
# as §1, §2
# [3] = test system: GSK-3β; settings: 0.5 mM, various time periods
# Source text: (§3) The following antibodies were obtained from Cell Signaling Technology (Beverly, Mass., USA) unless otherwise stated: anti-p27^KIP1 (bd Pharmingen), anti-p21^CIP1 , ANTI-CYCLIN d1, ANTI-CYCLIN d3, ANTI-CDK4, ANTI-CDK6, ANTI-PHOSPHO rb (Ser807/811), anti-RB, anti-phospho Akt (Ser473), anti-phospho Akt (Thre308), anti-Akt, anti-phospho PDK1 (Ser241), anti-phospho PDK1 (Tyr373/376), anti-phospho GSK-3β, anti-phospho mTOR (Ser2448), anti-mTOR, anti-βIII tubulin (Promega).
# (§4) To determine the effect of selenate on the phosphorylation of proteins involved in the PI3K/Akt signaling cascade, 5×10^5 PC-3 cells were allowed to attach for 10 hours. […] Cells were lysed in ELB (250 mM NaCl, 50 mM HEPES pH 7.0, 5 mM EDTA, 0.5 mM DTT, 0.2% TX100, 20 mM sodium fluoride, 2 mM sodium pervanadate, Complete Protease Inhibitor Cocktail (Roche)). Lysates were centrifuged for 15 minutes at 4° C. Protein concentration was determined using the BCA system (Sigma) and equal amounts of protein were loaded into each lane of a SDS-polyacrylamide gel. The proteins were transferred onto PVDF (Millipore) membranes and detected with anti-mouse or anti-rabbit secondary antibodies couples to horseradish peroxidase (HRP) and chemiluminescence using the SuperSignal West Dura (Pierce). Membranes were stripped using the Restore Western Blot Stripping Buffer (Pierce).
# [4] = test system: retinoblastoma protein (Rb ser807/811); settings: 0.5 mM, time-dependent
# Source text: as §3, §4
# [5] = test system: mTOR; settings: 0.5 mM, various time periods
# Source text: as §3, §4
# [6] = test system: PDK1; settings: 0.5 mM, out to 6 hours
# Source text: as §3, §4
# [7] = test system: cell cycle regulatory proteins (cyclin D1, cdk4, cdk6, p27KIP1, p21CIP1); assay: Immunoblot of cell cycle regulatory proteins in PC-3 cells; type: cell-based, human
# Source text: as §3, §4
# [8] = test system: PC-3 cells; settings: 0.25 mM, 54 hours
# Protocol: BrdU Incorporation assays and immunofluorescence were carried out by plating 2.5×10^3 PC-3 cells and allowing them to attach overnight. […] Cells were incubated for a further 16 hours, then washed 3× in PBS and fixed in 4% PFA for 10 minutes at room temperature.
# Mouse monoclonal anti-BrdU and antibodies were used as the primary antibodies and anti-mouse 488 Alexa, as the secondary antibodies. The percentage of cells incorporating BrdU was determined by counting the number of green staining nuclei per number of DAPI positive cells. 100 DAPI positive cells were counted per coverslip and the experiment performed in triplicate.
# [9] = test system: PC-3 cells; settings: 24-72 hours
# Protocol: Analysis of PC-3 growth curves were achieved by allowing 2×10^5 PC-3 cells to attach overnight. […] Supernatants and cells were then harvested, combined and viable cells assessed by Trypan Blue exclusion assay. Experiments were performed in triplicate.
# [10] = test system: Akt; assay: Immunoblot of Akt phosphorylation in serum starved PC-3 cells; type: cell-based, human; settings: 0.5 mM
# Source text: as §3, §4
# [11] = test system: human kidney epithelial Q293 cells; assay: Cell growth curve of Q293 cells, Trypan Blue; type: cell-based; settings: selenate 5 μM, LY294002 10 μM, 9 days
# Protocol: Q293 cells are a human kidney epithelial cell line routinely cultured in DMEM media (Invitrogen) in 5% foetal calf serum and 1% antibiotic/antimycotic mixture (Invitrogen).
# as §2
# [12] = 50 μM, 72 hours, presence or absence of androgen
smiles,measurement,setting,value
O=[Se](=O)(O)O [sodium selenate],androgen sensitive NS LNCaP cell proliferation,[1]; absence of androgen (charcoal stripped serum),synergizes with androgen ablation to markedly reduce
same,androgen sensitive NS LNCaP cell proliferation,[1]; presence of androgen (normal serum),markedly reduces
same,parental LNCaP cell proliferation,[1]; [12],synergizes with androgen ablation to reduce
same,CSS LNCaP cell proliferation,"[2]; 5 μM, 9 days, absence of androgen (charcoal stripped serum)",synergizes with androgen ablation to markedly reduce
same,androgen independent CSS LNCaP cell proliferation,"[2]; 5 μM, 9 days, presence of testosterone (normal serum)",markedly reduces
same,sensitivity of androgen independent cells versus parental LNCaP cells,"[2]; 50 μM, 72 hours",even more sensitive
same,CSS LNCaP cell proliferation,[2]; [12],synergizes with androgen ablation to reduce
same,GAK-3β phosphorylation status,[3],induced a decline
same,phosphorylation of Rb (ser807/811),[4],marked decline
same,mTOR phosphorylation status,[5],induced a decline
same,"phosphorylation status of PDK1 (ser241, tyr373/376)",[6],no effect
same,"p27KIP1 total protein levels, inorganic versus organic selenium","[7]; 0.5 mM, compared to control (0 hours), FIG. 3C",markedly boosted
same,expression levels of cyclin D1,"[7]; 0.5 mM, from the 14 hour time period",dropped significantly
same,cdk4 levels,"[7]; 0.5 mM, out to 24 hours",peaked at 6 hours and declined in time dependent manner to 24 hours
same,p21CIP1 levels,"[7]; 0.5 mM, peaking at 6 hours",marked increase
same,p27KIP1 levels,"[7]; 0.5 mM, time-dependent till 24 hours",increased
same,cdk6 levels,[7]; high dose (0.5 mM),remained relatively unchanged
same,G1/S progression (BrdU/FrdU positive nuclei),[8],severely impeded
same,PC-3 cell number,[9]; doses of 0.01 to 0.1 mM,rate of increase in cell number was impeded
same,PC-3 cell number,[9]; doses of 0.25 and 0.5 mM,all increases in cell number were blocked
same,total cellular Akt levels (pan Akt),[10],essentially unchanged
same,Akt activation after the transient boost,[10]; later exposure times,marked and prolonged deactivation
same,Akt phosphorylation at Ser473,"[10]; various time points, FIG. 4D",profoundly inhibited
same,"phosphorylation of Akt at Ser473 and Thr308, early",[10]; within 10 minutes of exposure,transient boost
same,Q293 cell proliferation,[11]; CSS media (androgen ablation),does not significantly effect
same,Q293 cell proliferation,[11]; normal serum,does not significantly effect
